The target of experiment [1] is T1, ShPatB (Staphylococcus hominis, UniProt Z9H0M2I6C5).
T1 construct: full length; pBADcLIC, expressed in E. coli MC1061; homodimer, PLP on Lys246
T1 sequence (Z9H0M2I6C5 7-404): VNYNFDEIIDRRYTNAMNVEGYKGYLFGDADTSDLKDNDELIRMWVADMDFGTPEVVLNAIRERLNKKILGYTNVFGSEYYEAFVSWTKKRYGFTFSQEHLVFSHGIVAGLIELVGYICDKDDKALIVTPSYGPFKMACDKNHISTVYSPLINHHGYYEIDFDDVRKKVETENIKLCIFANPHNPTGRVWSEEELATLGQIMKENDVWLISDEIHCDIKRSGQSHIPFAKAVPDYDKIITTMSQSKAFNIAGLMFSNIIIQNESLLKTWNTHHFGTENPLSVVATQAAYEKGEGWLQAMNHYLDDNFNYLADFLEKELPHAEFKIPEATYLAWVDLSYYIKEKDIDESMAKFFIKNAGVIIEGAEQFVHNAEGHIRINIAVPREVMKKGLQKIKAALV
In words: DTNB thiol release, A412, Michaelis-Menten. Format: biochemical. Conditions: pH 7.8, 50 mM KPi, 200 mM NaCl, 37 °C, 0.4 mM DTNB.

The target in another experiment is T2, SaPatB (Streptococcus anginosus, UniProt A6BMJ3).
T2 construct: gene lcd; full length; expressed in E. coli MC1061
T2 sequence (A6BMJ3 1-388): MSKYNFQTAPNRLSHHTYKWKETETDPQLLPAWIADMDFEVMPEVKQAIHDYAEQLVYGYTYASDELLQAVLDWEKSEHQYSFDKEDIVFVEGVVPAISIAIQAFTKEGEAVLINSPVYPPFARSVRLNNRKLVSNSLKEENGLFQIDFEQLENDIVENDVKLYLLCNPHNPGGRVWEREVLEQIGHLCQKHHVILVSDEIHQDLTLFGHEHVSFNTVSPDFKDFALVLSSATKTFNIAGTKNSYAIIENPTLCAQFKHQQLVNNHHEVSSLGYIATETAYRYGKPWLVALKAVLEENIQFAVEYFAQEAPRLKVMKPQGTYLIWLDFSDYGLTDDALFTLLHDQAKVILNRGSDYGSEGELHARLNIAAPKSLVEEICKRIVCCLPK
Put plainly: DTNB thiol release, A412, Michaelis-Menten. Type of experiment: biochemical. Conditions: pH 7.8, 50 mM KPi, 200 mM NaCl, 37 °C, 0.4 mM DTNB.

The target in experiment [2] is T3, BsPatB (Bacillus subtilis, UniProt Q08432).
T3 construct: gene patB; full length; N-terminal MGGGFA and C-terminal ENLYFQG-His10; expressed in E. coli MC1061; homodimer, PLP on Lys234
Put plainly: DTNB thiol release, A412, Michaelis-Menten. Format: biochemical. Conditions: pH 7.8, 50 mM KPi, 200 mM NaCl, 37 °C, 0.4 mM DTNB.

The next experiment addresses T4, EcMalY (Escherichia coli, UniProt P23256).
T4 construct: gene malY; full length; N-terminal MGGGFA and C-terminal ENLYFQG-His10; expressed in E. coli MC1061
Put plainly: DTNB thiol release, A412, Michaelis-Menten. Conditions: pH 7.8, 50 mM KPi, 200 mM NaCl, 37 °C, 0.4 mM DTNB. Type of experiment: biochemical.

The target of experiment [3] is T1, ShPatB. Put plainly: end point DTNB assay, A412. Format: biochemical. Conditions: 2.5 μM enzyme, 2.5 mM Cys-3M3SH; covalent to PLP, reversed by excess PLP.
The target of experiment [4] is T1, ShPatB. Put plainly: X-ray crystallography, […] Å. Format: binding. Conditions: covalent internal aldimine at Lys246.
Experiment [5] addresses T3, BsPatB. Put plainly: X-ray crystallography, […] Å. Type of experiment: binding. Conditions: covalent internal aldimine at Lys234.
Another experiment deals with T5, ShMetC (Staphylococcus hominis, UniProt Z9HEU7RWP2).
T5 construct: full length; expressed in E. coli MC1061; species of 'Sh' not spelt out for MetC (S. haemolyticus possible)
In words: DTNB thiol release, A412, Michaelis-Menten. Conditions: pH 7.8, 50 mM KPi, 200 mM NaCl, 37 °C, 0.4 mM DTNB. Type of experiment: biochemical.

Another experiment deals with T6, SeMetC (Staphylococcus epidermidis, UniProt Q5HRU7).
T6 construct: gene SERP0095; full length; expressed in E. coli MC1061; species of 'Se' not spelt out
T6 sequence (Q5HRU7 1-381): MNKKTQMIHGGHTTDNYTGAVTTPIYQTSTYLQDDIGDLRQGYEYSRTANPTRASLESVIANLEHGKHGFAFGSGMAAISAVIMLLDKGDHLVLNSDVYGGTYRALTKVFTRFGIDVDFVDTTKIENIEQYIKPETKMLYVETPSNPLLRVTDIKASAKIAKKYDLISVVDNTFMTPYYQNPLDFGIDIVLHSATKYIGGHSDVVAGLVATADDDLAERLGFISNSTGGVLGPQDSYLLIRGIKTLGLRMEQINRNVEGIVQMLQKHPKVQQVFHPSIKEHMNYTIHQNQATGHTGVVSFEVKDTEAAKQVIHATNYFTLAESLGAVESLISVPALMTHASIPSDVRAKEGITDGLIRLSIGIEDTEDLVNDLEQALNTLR
Put plainly: DTNB thiol release, A412, Michaelis-Menten. Conditions: pH 7.8, 50 mM KPi, 200 mM NaCl, 37 °C, 0.4 mM DTNB. Format: biochemical.

In a further experiment the target is T7, CjAecD (Corynebacterium jeikeium, UniProt Q4JWQ6).
T7 construct: gene aecD; full length; expressed in E. coli MC1061
T7 sequence (Q4JWQ6 1-416): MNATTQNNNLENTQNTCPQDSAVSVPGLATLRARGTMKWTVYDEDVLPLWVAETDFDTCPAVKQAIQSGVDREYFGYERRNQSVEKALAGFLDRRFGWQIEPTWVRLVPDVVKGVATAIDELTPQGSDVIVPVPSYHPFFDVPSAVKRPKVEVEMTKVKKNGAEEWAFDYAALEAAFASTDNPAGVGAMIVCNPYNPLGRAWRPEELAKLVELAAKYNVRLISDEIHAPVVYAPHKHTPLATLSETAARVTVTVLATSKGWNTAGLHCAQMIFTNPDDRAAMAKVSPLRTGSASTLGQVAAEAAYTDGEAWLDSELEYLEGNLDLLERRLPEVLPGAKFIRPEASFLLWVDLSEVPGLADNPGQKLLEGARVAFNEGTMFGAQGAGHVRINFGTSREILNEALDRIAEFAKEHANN
Put plainly: DTNB thiol release, A412, Michaelis-Menten. Conditions: pH 7.8, 50 mM KPi, 200 mM NaCl, 37 °C, 0.4 mM DTNB. Format: biochemical.

T3 sequence (Q08432 whole entry): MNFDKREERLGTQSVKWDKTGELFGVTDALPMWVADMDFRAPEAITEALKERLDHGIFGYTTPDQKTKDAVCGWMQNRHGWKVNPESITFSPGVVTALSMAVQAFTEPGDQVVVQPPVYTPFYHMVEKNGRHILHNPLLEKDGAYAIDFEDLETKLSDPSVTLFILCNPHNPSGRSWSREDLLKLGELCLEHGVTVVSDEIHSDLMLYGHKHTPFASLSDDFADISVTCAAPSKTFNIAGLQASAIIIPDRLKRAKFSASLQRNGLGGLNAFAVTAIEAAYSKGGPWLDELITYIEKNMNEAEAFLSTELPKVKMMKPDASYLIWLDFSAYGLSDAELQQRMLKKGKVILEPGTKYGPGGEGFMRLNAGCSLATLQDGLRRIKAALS
T4 sequence (P23256 whole entry): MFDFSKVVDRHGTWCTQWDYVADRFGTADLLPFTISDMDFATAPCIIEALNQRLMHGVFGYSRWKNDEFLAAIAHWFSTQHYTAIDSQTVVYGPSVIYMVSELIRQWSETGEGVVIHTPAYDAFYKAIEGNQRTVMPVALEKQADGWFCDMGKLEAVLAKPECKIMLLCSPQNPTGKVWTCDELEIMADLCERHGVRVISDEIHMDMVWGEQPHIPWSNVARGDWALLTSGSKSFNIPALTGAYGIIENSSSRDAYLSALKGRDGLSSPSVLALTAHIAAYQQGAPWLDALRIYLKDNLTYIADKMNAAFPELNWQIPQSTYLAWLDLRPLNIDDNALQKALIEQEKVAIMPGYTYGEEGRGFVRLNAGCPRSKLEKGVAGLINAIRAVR

On to `CCCC(C)(CCO)SC[C@H](N)C(=O)O` (some centres unmarked) [Cys-3M3SH], for which the KM result on ShPatB [1] is “ShPatB exhibits selectivity towards Cys-3M3SH”; on SaPatB, “Streptococcus anginosus (SaPatB) did not discriminate between the two ligands”; on BsPatB [2], “B. subtilis (BsPatB) and Streptococcus anginosus (SaPatB) did not discriminate between the two ligands”; on EcMalY, “E. coli MalY (EcMalY) had higher activities against cystathionine”.
As to `N[C@H]1CONC1=O` [LCS, L-cycloserine], the “inhibition (end point)” value on ShPatB [3] is recorded as “Cycloserine in vitro inhibition of ShPatB with Cys-3M3SH as the substrate”.
For the molecule `Cc1ncc(COP(=O)(O)O)c(C=O)c1O` [PLP, pyridoxal phosphate], the “X-ray crystallography, 1.6 Å” value on ShPatB [4] is “each subunit containing a PLP moiety covalently bound to a conserved lysine residue”. Further, on BsPatB [5], the “X-ray crystallography, 2.3 Å” value is “each subunit containing a PLP moiety covalently bound to a conserved lysine residue”.
`N[C@@H](CCSC[C@H](N)C(=O)O)C(=O)O` [cystathionine]: the KM entry is “higher activities against cystathionine, similar to the MetC enzymes included (ShMetC and SeMetC)” on ShMetC; “higher activities against cystathionine, similar to the MetC enzymes included (ShMetC and SeMetC)” at SeMetC; “Streptococcus anginosus (SaPatB) did not discriminate between the two ligands” at SaPatB; “B. subtilis (BsPatB) and Streptococcus anginosus (SaPatB) did not discriminate between the two ligands” at BsPatB [2]; “E. coli MalY (EcMalY) had higher activities against cystathionine” on EcMalY; “CjAecD is selective for cystathionine over Cys-3M3SH” on CjAecD.
Regarding `CC(C)(CCO)SC[C@H](N)C(=O)O` [Felinine], the KM entry at ShPatB [1] was “We also measured enzyme activity against Felinine, a close structural analog of Cys-3M3SH”.

(Values after paper PMC7385124, “The molecular basis of thioalcohol production in human body odour” (Scientific Reports, 2020).)
